Peptide text beside a SMILES is read from it. * marks the point of attachment. Cbz = O=C(OCc1ccccc1)*

One assay deals with T1, CARM1 (Homo sapiens, UniProt Q86X55).
T1 sequence (Q86X55 1-608): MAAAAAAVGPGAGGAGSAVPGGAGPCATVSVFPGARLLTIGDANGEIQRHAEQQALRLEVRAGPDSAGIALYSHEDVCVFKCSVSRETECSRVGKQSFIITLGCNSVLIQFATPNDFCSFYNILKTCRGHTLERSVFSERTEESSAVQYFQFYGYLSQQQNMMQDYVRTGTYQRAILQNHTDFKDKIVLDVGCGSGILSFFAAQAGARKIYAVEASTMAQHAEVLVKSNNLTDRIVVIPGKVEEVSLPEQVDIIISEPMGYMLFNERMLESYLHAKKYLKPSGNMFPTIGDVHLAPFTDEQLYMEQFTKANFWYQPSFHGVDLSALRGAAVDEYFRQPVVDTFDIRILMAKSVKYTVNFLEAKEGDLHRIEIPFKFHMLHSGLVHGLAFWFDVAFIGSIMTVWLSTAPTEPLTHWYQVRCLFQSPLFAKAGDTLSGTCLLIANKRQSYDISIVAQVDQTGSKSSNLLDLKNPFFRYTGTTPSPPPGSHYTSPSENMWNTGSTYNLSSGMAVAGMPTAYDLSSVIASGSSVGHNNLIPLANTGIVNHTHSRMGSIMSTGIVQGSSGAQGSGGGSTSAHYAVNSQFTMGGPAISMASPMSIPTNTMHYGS
The experiment in a line: CARM1 degradation by western blot in MCF7 cells. In kind it is cell-based. To be noted: 0.5 μM, 24 h. Set-up: Cell lysates were collected and the CARM1 levels were detected by western blots; endogenous in cells; host or cells: MCF7. As to the method: Based on the structure of TPVC3, CARM1 degraders with stable and flexible alkyl linkages 2a-e were designed and synthesized. Degrader 2b bears the same linker length as TPVC3, while 2a has one less carbon. However, we also changed the hydrolytic labile C═N double bond, which is part of the acylhydrazone motif, in TPVC3 to a C—C bond in compound 2b. This change may influence the required optimal linker length. […] Western blot assays were performed to evaluate the CARM1 degradation activity of the compounds after treating MCF7 cells with these degraders at two concentrations (0.5 and 1.0 μM) for 24 h. […] It has one less carbon atom than 2a in terms of length. […] It has the same linker length as 2d.
The treatment dose and time were determined based on time-course and dose titration experiments (FIG. 4B-4C).
Western Blot Assay. Cells were harvested and washed with Dulbecco's phosphate-buffered saline (PBS), then lysed with 1×RIPA lysis buffer (50 mM Tris pH 7.5, 150 mM NaCl, 1% NP-40, 0.5% sodium deoxycholate, and 0.1% sodium dodecyl sulfate) supplemented with 1 mM phenylmethylsulfonyl fluoride, 10 μg/mL aprotinin, 1 μM leupeptin, and 10 μg/mL pepstatin on ice for 20 min. The supernatant was collected after spinning down at 15000 RPM at 4 degrees Celsius for 10 min. The concentration of whole lysates was quantified using a Bradford assay. 50-75 μg of cell lysates was boiled in 4× Laemmli Loading Dye and boiled at 100 degrees Celsius for 10 min. 25 μg were run in 8% SDS-PAGE gels and transferred to nitrocellulose membranes. Blots were blocked in 5% skim milk in PBST [PBS and 0.1% Tween 20] for 45 min, then incubated with primary antibodies at 4 degrees Celsius overnight. Blots were washed in PBST for 30 min, then incubated with horseradish peroxidase-linked secondary antibodies (Jackson ImmunoResearch) for 1 hr. Afterwards, blots were washed in PBST for 15-30 min, then treated with chemiluminescent ECL reagent and imaged with the ChemiDoc Imaging System (Bio-Rad) or Azure 600 (Azure Biosystems). Expression levels of the indicated proteins were probed by the following antibodies: anti-CARM1, anti-me-BAF155, anti-me-PABP1, anti-PABP1,^7 anti-BAF155 (D7F8S, Cell Signaling Technology), anti-PRMT1 (Bethyl), anti-PRMT6 (D-5, Santa Cruz Biotechnology), anti-β-Actin (ABclonal Technology, Sigma-Aldrich), anti-Hsp90 (H-114, Santa Cruz Biotechnology).
With `CNCCN1CCC(c2cc(CN(C)C(=O)c3cccc(Oc4ccc(C(=O)N5CCC(CN6CCC(CN7CCN(CC(=O)N[C@H](C(=O)N8C[C@H](O)C[C@H]8C(=O)N[C@@H](C)c8ccc(-c9scnc9C)cc8)C(C)(C)C)CC7)CC6)CC5)cc4)c3)ccn2)CC1` [Compound 3c, (2S,4R)-1-((S)-3,3-dimethyl-2-(2-(4-((1-((1-(4-(3-(methyl((2-(1-(2-(methylamino)ethyl)piperidin-4-yl)pyridin-4-yl)methyl)carbamoyl)phenoxy)benzoyl)piperidin-4-yl)methyl)piperidin-4-yl)methyl)piperazin-1-yl)acetamido)butanoyl)-4-hydroxy-N—((S)-1-(4-(4-methylthiazol-5-yl)phenyl)ethyl)pyrrolidine-2-carboxamide], the CARM1 degradation activity entry is reported as “significantly lower CARM1 degradation activities”.

As to `CNCCN1CCC(c2cc(CN(C)C(=O)c3cccc(Oc4ccc(CC(=O)N5CCC(CN6CCC(CN7CCN(CC(=O)N[C@H](C(=O)N8C[C@H](O)C[C@H]8C(=O)N[C@@H](C)c8ccc(-c9scnc9C)cc8)C(C)(C)C)CC7)CC6)CC5)cc4)c3)ccn2)CC1` [Compound 3d, (2S,4R)-1-((S)-3,3-dimethyl-2-(2-(4-((1-((1-(2-(4-(3-(methyl((2-(1-(2-(methylamino)ethyl)piperidin-4-yl)pyridin-4-yl)methyl)carbamoyl)phenoxy)phenyl)acetyl)piperidin-4-yl)methyl)piperidin-4-yl)methyl)piperazin-1-yl)acetamido)butanoyl)-4-hydroxy-N—((S)-1-(4-(4-methylthiazol-5-yl)phenyl)ethyl)pyrrolidine-2-carboxamide], the CARM1 degradation activity entry is listed as “significantly lower CARM1 degradation activities”.

Still in this assay, the particulars now being: 0.5 and 1.0 μM, 24 h.
With `CNCCN1CCC(c2cc(CN(C)C(=O)c3cccc(Oc4ccc(OCC(=O)NCCc5ccc(OCCCCCCC(=O)N[C@H](C(=O)N6C[C@H](O)C[C@H]6C(=O)N[C@@H](C)c6ccc(-c7scnc7C)cc6)C(C)(C)C)cc5)cc4)c3)ccn2)CC1` [Compound 2e, (2S,4R)-1-((S)-3,3-dimethyl-2-(7-(4-(2-(2-(4-(3-(methyl((2-(1-(2-(methylamino)ethyl)piperidin-4-yl)pyridin-4-yl)methyl)carbamoyl)phenoxy)phenoxy)acetamido)ethyl)phenoxy)heptanamido)butanoyl)-4-hydroxy-N—((S)-1-(4-(4-methylthiazol-5-yl)phenyl)ethyl)pyrrolidine-2-carboxamide], the “CARM1 degradation activity, alkyl-linker degraders” value is reported as “stronger CARM1 degradation activities”.

On to `CNCCN1CCC(c2cc(CN(C)C(=O)c3cccc(Oc4ccc(OCC(=O)NCCc5ccc(OCCCCCC(=O)N[C@H](C(=O)N6C[C@H](O)C[C@H]6C(=O)N[C@@H](C)c6ccc(-c7scnc7C)cc6)C(C)(C)C)cc5)cc4)c3)ccn2)CC1` [Compound 2d, (2S,4R)-1-((S)-3,3-dimethyl-2-(6-(4-(2-(2-(4-(3-(methyl((2-(1-(2-(methylamino)ethyl)piperidin-4-yl)pyridin-4-yl)methyl)carbamoyl)phenoxy)phenoxy)acetamido)ethyl)phenoxy)hexanamido)butanoyl)-4-hydroxy-N—((S)-1-(4-(4-methylthiazol-5-yl)phenyl)ethyl)pyrrolidine-2-carboxamide], for which the “CARM1 degradation activity, alkyl-linker degraders” value was “stronger CARM1 degradation activities”. Regarding `CNCCN1CCC(c2cc(CN(C)C(=O)c3cccc(Oc4ccc(OCC(=O)NCCc5ccc(OCCCC(=O)N[C@H](C(=O)N6C[C@H](O)C[C@H]6C(=O)N[C@@H](C)c6ccc(-c7scnc7C)cc6)C(C)(C)C)cc5)cc4)c3)ccn2)CC1` [Compound 2b, (2S,4R)-1-((S)-3,3-dimethyl-2-(4-(4-(2-(2-(4-(3-(methyl((2-(1-(2-(methylamino)ethyl)piperidin-4-yl)pyridin-4-yl)methyl)carbamoyl)phenoxy)phenoxy)acetamido)ethyl)phenoxy)butanamido)butanoyl)-4-hydroxy-N—((S)-1-(4-(4-methylthiazol-5-yl)phenyl)ethyl)pyrrolidine-2-carboxamide], the “CARM1 degradation activity, alkyl-linker degraders” value was 2d and 2e showed stronger CARM1 degradation activities than 2a, 2b, and 2c. Turning to `CNCCN1CCC(c2cc(CN(C)C(=O)c3cccc(Oc4ccc(OCC(=O)NCc5ccc(OCCCC(=O)N[C@H](C(=O)N6C[C@H](O)C[C@H]6C(=O)N[C@@H](C)c6ccc(-c7scnc7C)cc6)C(C)(C)C)cc5)cc4)c3)ccn2)CC1` [Compound 2a, (2S,4R)-1-((S)-3,3-dimethyl-2-(4-(4-((2-(4-(3-(methyl((2-(1-(2-(methylamino)ethyl)piperidin-4-yl)pyridin-4-yl)methyl)carbamoyl)phenoxy)phenoxy)acetamido)methyl)phenoxy)butanamido)butanoyl)-4-hydroxy-N—((S)-1-(4-(4-methylthiazol-5-yl)phenyl)ethyl)pyrrolidine-2-carboxamide], the “CARM1 degradation activity, alkyl-linker degraders” value is 2d and 2e showed stronger CARM1 degradation activities than 2a, 2b, and 2c. Consider `CNCCN1CCC(c2cc(CN(C)C(=O)c3cccc(Oc4ccc(OCC(=O)NCCc5ccc(OCCCCC(=O)N[C@H](C(=O)N6C[C@H](O)C[C@H]6C(=O)N[C@@H](C)c6ccc(-c7scnc7C)cc6)C(C)(C)C)cc5)cc4)c3)ccn2)CC1` [Compound 2c, (2S,4R)-1-((S)-3,3-dimethyl-2-(5-(4-(2-(2-(4-(3-(methyl((2-(1-(2-(methylamino)ethyl)piperidin-4-yl)pyridin-4-yl)methyl)carbamoyl)phenoxy)phenoxy)acetamido)ethyl)phenoxy)pentanamido)butanoyl)-4-hydroxy-N—((S)-1-(4-(4-methylthiazol-5-yl)phenyl)ethyl)pyrrolidine-2-carboxamide], for which the “CARM1 degradation activity, alkyl-linker degraders” value was 2d and 2e showed stronger CARM1 degradation activities than 2a, 2b, and 2c.

The next assay addresses T1, CARM1. The experiment in a line: CARM1 degradation by western blot in MCF7 cells. It is filed as cell-based. Set-up: Cell lysates were collected and the CARM1 levels were detected by western blots; endogenous in cells; host or cells: MCF7. To be noted: MCF7 cells, 0.5 μM 3b, 24 h; 7.5 μM MG132, 20 μM VH-032, 2 μM MLN4924, 10 μM TP-064.
Take `CC(=O)N[C@H](C(=O)N1C[C@H](O)C[C@H]1C(=O)NCc1ccc(-c2scnc2C)cc1)C(C)(C)C` [VH-032, reference compound]: the “Effect of competitor/inhibitor on 3b-induced CARM1 degradation” value (shortened to “Effect of competitor/inhibitor”) is on record as “abrogated 3b-induced CARM1 degradation”. For `CC(C)C[C@@H](C=O)NC(=O)[C@H](CC(C)C)NC(=O)[C@H](CC(C)C)NC(=O)OCc1ccccc1` [MG132, reference compound] (Cbz-Leu-Leu-Leu-aldehyde), the “Effect of competitor/inhibitor” value was “abrogated 3b-induced CARM1 degradation”. As to `NS(=O)(=O)OC[C@@H]1C[C@@H](n2ccc3c(N[C@H]4CCc5ccccc54)ncnc32)C[C@@H]1O` [MLN492437, reference compound], the “Effect of competitor/inhibitor” value is listed as “abrogated 3b-induced CARM1 degradation”.

The values are drawn from patent publication US20250222120A1, “SYNTHESIS OF NOVEL SMALL MOLECULE CARM1 DEGRADERS, COMPOUNDS FORMED THEREBY, AND PHARMACEUTICAL COMPOSITIONS CONTAINING THEM” (Wisconsin Alumni Research Foundation, priority 2024, published 2025).
